For one experiment, the target named is 5-HT2A receptor (Homo sapiens, UniProt P28223). Nature of the experiment: Affinity for 5-HT2A receptor binding sites, radioligand binding with [3H]ketanserin. The following applies: read-out: Ki 5-HT2A, rat cortex membranes (assay 2) or NIH3T3 h5-HT2A membranes (assay 3), table does not say which.
In experiment [1] the target is T1, human recombinant 5-HT2C receptor (Homo sapiens, UniProt P28335).
T1 sequence (P28335 33-458): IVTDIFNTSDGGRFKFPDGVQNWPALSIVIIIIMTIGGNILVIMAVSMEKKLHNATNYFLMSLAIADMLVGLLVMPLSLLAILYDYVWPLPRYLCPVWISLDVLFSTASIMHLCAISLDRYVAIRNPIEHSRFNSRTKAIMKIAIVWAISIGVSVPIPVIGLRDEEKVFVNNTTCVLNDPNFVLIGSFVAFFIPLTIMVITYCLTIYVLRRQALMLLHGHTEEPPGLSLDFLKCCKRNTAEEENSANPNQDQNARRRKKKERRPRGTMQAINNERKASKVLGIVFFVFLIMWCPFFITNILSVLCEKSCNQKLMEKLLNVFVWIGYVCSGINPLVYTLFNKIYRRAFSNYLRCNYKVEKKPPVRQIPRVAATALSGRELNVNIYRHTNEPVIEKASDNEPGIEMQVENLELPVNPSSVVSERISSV
As to the kind of experiment: Affinity for 5HT2 receptor binding sites, h5-HT2C, [3H]mesulergine. The following applies: CHO h5-HT2C membranes.

The target in another experiment is rat 5-HT7a receptor (Rattus norvegicus, UniProt P32305). As to the kind of experiment: Affinity for 5-HT7 receptor binding sites, radioligand binding with [3H]5-CT. The following applies: membranes of HEK-293 cells with rat 5-HT7a, 1 nM [3H]5-CT. On the procedure:
The affinity of the compounds described in this invention for the 5-HT7 receptor binding site was evaluated by single competition radioligand binding assay. The assay was performed on membranes prepared from HEK-293 cells that had been subjected to stable transfection with the rat 5-HT7a receptor (GB: NM022938). Cells were scraped from the culture plates, suspended in Tris-HCl 50 mM pH 7.5 and collected through centrifugation (1000 rpm for 5 min). The cell pellets were homogenized (Polytron, 15 s, setting 5) in 50 mM Tris-HCl (pH 7.5), 5 mM EDTA. Following centrifugation (15,000 rpm for 25 min), membranes (135 μg protein/mL) were resuspended in the same buffer and incubated for 60 min at RT with 1 nM [^3H]5-CT in the presence of increasing concentration of test compounds. Nonspecific binding was defined in the presence of 10 μM 5-HT. Incubation was stopped by rapid filtration using the cell harvester (Packard). Radioactivity was counted in a TopCount-NXT (Packard). Experiments were conducted in triplicate.

The next experiment deals with 5-HT2B receptor (Homo sapiens, UniProt P41595). Nature of the experiment: Affinity for 5HT2 receptor binding sites, h5-HT2B, [3H]mesulergine. The following applies: CHO h5-HT2B membranes.

Where a name gives a salt, the structure may show the parent alone.

Sequence of 5-HT2B receptor (P41595 whole entry): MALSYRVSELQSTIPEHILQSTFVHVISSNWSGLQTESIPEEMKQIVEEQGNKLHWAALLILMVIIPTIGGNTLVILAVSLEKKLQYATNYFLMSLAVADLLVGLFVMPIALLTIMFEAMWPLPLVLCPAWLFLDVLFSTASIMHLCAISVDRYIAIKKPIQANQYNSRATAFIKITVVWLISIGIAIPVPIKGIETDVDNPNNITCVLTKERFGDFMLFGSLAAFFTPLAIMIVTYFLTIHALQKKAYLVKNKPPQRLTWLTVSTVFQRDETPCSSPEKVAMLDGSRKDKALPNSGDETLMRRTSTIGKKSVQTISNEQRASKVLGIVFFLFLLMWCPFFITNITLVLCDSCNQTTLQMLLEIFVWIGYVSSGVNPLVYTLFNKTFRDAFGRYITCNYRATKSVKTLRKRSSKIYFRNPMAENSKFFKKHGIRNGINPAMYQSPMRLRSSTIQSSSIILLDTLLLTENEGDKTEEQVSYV
Sequence of rat 5-HT7a receptor (P32305 whole entry): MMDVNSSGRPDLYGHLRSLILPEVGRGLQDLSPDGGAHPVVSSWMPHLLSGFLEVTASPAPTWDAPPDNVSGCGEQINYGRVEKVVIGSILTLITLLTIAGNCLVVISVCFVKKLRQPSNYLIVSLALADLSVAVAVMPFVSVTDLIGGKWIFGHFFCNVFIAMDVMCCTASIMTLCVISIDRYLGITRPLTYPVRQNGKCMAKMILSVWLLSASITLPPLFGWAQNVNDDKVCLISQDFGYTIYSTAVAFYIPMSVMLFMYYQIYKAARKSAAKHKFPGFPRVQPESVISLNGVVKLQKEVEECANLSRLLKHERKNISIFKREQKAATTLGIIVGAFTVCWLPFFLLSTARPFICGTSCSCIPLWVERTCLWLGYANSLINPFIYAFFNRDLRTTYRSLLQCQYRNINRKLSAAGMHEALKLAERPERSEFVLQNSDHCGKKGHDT
Protocol for 5-HT2A receptor: Sigmoidal inhibition curves were generated and fitted by nonlinear regression analysis (GraphPad Prism).
The affinity of the compounds for the rat 5-HT2A receptor was evaluated by competitive radioligand binding assay using [^3H]ketanserine as the radioligand. […] Brain tissue (rat cortex) was homogenized in 20 volumes per wet weight tissue of Tris-HCl buffer (50 mM, pH 7.4). The total membrane fraction was collected by centrifugation and washed by subsequent centrifugation runs (25 min at 25,000 g at 4° C.). Membranes were re-suspended in Tris-HCl buffer (50 mM, pH 7.4) containing 1 nM [^3H]ketanserin. Non-specific binding was estimated in the presence of 10 μM risperidone. The incubation was terminated by rapid filtration over Whatman GF/B filters pre-soaked in 0.1% polyethylenimine, and one washing step with 1 mL ice-cold Tris-HCl buffer, pH 7.4.

Turning to `CC(C)c1nc2c(c(-c3ccccc3F)n1)CNCC2` [Example 26, 4-(2-Fluoro-phenyl)-2-isopropyl-5,6,7,8-tetrahydro-pyrido[4,3-d]pyrimidine], the Ki – broadly, the equilibrium dissociation constant of an inhibitor or competing ligand from its target – is 300 nM on 5-HT2A receptor, greater than 10000 nM in experiment [1], greater than 10000 nM on rat 5-HT7a receptor and greater than 10000 nM at 5-HT2B receptor.

With `CC(C)c1nc2c(c(-c3ccc(F)cc3F)n1)CNCC2` [Example 27, 4-(2,4-Difluoro-phenyl)-2-isopropyl-5,6,7,8-tetrahydro-pyrido[4,3-d]pyrimidine], the Ki at 5-HT2A receptor was 60 nM; in experiment [1], greater than 10000 nM; at rat 5-HT7a receptor, greater than 10000 nM; on 5-HT2B receptor, greater than 10000 nM.

Consider `Cc1ccc(-c2nc(C(C)C)nc3c2CNCC3)cc1` [Example 28, 2-Isopropyl-4-p-tolyl-5,6,7,8-tetrahydro-pyrido[4,3-d]pyrimidine], for which the Ki at 5-HT2A receptor was 100 nM; in experiment [1], 3000 nM; on rat 5-HT7a receptor it was greater than 10000 nM; at 5-HT2B receptor, 400 nM.

Turning to `COc1ccc(-c2nc(C(C)C)nc3c2CNCC3)cc1` [Example 30, 2-Isopropyl-4-(4-methoxy-phenyl)-5,6,7,8-tetrahydro-pyrido[4,3-d]pyrimidine], the Ki was 800 nM on 5-HT2A receptor, 2500 nM in experiment [1], greater than 10000 nM at rat 5-HT7a receptor and 1000 nM on 5-HT2B receptor.

As to `CC(C)c1nc2c(c(-c3ccccc3)n1)CNCC2` [Example 31, 2-Isopropyl-4-phenyl-5,6,7,8-tetrahydro-pyrido[4,3-d]pyrimidine], the inhibition constant (Ki) at 5-HT2A receptor was 70 nM; in experiment [1], greater than 10000 nM; at rat 5-HT7a receptor it was greater than 10000 nM; on 5-HT2B receptor, 2000 nM.

`CC(C)c1nc2c(c(-c3ccc(C(F)(F)F)cc3)n1)CNCC2` [Example 32, 2-Isopropyl-4-(4-trifluoromethyl-phenyl)-5,6,7,8-tetrahydro-pyrido[4,3-d]pyrimidine]: the inhibition constant Ki at 5-HT2A receptor is 2000 nM; in experiment [1] it was greater than 10000 nM; at rat 5-HT7a receptor it was greater than 10000 nM; at 5-HT2B receptor, greater than 10000 nM.

Take `CC(C)c1nc2c(c(-c3ccccc3Oc3ccccc3)n1)CNCC2` [Example 33, 2-Isopropyl-4-(2-phenoxy-phenyl)-5,6,7,8-tetrahydro-pyrido[4,3-d]pyrimidine]: the inhibitory constant (Ki) (on 5-HT2A receptor; in experiment [1]; at rat 5-HT7a receptor; at 5-HT2B receptor) was greater than 10000 nM throughout.

On to `CC(C)Cc1nc2c(c(-c3ccsc3)n1)CNCC2` [Example 34, 2-Isobutyl-4-thiophen-3-yl-5,6,7,8-tetrahydro-pyrido[4,3-d]pyrimidine], for which the Ki on 5-HT2A receptor was 150 nM; in experiment [1], 1000 nM; on rat 5-HT7a receptor, greater than 10000 nM; on 5-HT2B receptor, 400 nM.

As for `CC(C)Cc1nc2c(c(-c3cccs3)n1)CNCC2` [Example 35, 2-Isobutyl-4-thiophen-2-yl-5,6,7,8-tetrahydro-pyrido[4,3-d]pyrimidine], the Ki on 5-HT2A receptor stood at 70 nM; in experiment [1] it was 2000 nM; at rat 5-HT7a receptor, 500 nM; at 5-HT2B receptor, 400 nM.

As to `CC(C)Cc1nc2c(c(-c3ccncc3)n1)CNCC2` [Example 36, 2-Isobutyl-4-pyridin-4-yl-5,6,7,8-tetrahydro-pyrido[4,3-d]pyrimidine], the Ki (on 5-HT2A receptor; in experiment [1]; on rat 5-HT7a receptor; on 5-HT2B receptor) was greater than 10000 nM in each case.

In the case of `Cc1ccc(-c2nc(CC(C)C)nc3c2CNCC3)cc1` [Example 38, 2-Isobutyl-4-p-tolyl-5,6,7,8-tetrahydro-pyrido[4,3-d]pyrimidine], the Ki is 40 nM at 5-HT2A receptor, 800 nM in experiment [1], greater than 10000 nM on rat 5-HT7a receptor and 50 nM at 5-HT2B receptor.

In the case of `Cc1cc(-c2nc(CC(C)C)nc3c2CNCC3)ccc1F` [Example 39, 4-(4-Fluoro-3-methyl-phenyl)-2-isobutyl-5,6,7,8-tetrahydro-pyrido[4,3-d]pyrimidine], the inhibitory constant (Ki) on 5-HT2A receptor is 150 nM; in experiment [1], greater than 10000 nM; on rat 5-HT7a receptor it was greater than 10000 nM; on 5-HT2B receptor, greater than 10000 nM.

For the molecule `CC(C)Cc1nc2c(c(-c3ccc(C#N)cc3)n1)CNCC2` [Example 40, 4-(2-Isobutyl-5,6,7,8-tetrahydro-pyrido[4,3-d]pyrimidin-4-yl)-benzonitrile], the Ki was 500 nM on 5-HT2A receptor, greater than 10000 nM in experiment [1], greater than 10000 nM at rat 5-HT7a receptor and greater than 10000 nM at 5-HT2B receptor.

On to `COc1ccc(-c2nc(CC(C)C)nc3c2CNCC3)cc1` [Example 41, 2-Isobutyl-4-(4-methoxy-phenyl)-5,6,7,8-tetrahydro-pyrido[4,3-d]pyrimidine], for which the inhibitory constant (Ki) at 5-HT2A receptor was 2000 nM; in experiment [1], 5000 nM; on rat 5-HT7a receptor it was greater than 10000 nM; on 5-HT2B receptor it was 5000 nM.

In the case of `CCC(C)c1nc2c(c(-c3ccccc3F)n1)CNCC2` (stereo not shown) [Example 42, 2-sec-Butyl-4-(2-fluoro-phenyl)-5,6,7,8-tetrahydro-pyrido[4,3-d]pyrimidine hydrochloride], the Ki on 5-HT2A receptor was 120 nM; in experiment [1], greater than 10000 nM; at rat 5-HT7a receptor it was greater than 10000 nM; on 5-HT2B receptor, greater than 10000 nM.

Turning to `CCC(C)c1nc2c(c(-c3cccc(F)c3)n1)CNCC2` (stereo not shown) [Example 43, 2-sec-Butyl-4-(3-fluoro-phenyl)-5,6,7,8-tetrahydro-pyrido[4,3-d]pyrimidine], the Ki on 5-HT2A receptor is 200 nM; in experiment [1], greater than 10000 nM; at rat 5-HT7a receptor, greater than 10000 nM; at 5-HT2B receptor, greater than 10000 nM.

Regarding `CCC(C)c1nc2c(c(-c3ccc(OC)cc3)n1)CNCC2` (stereo not shown) [Example 44, 2-sec-Butyl-4-(4-methoxy-phenyl)-5,6,7,8-tetrahydro-pyrido[4,3-d]pyrimidine], the Ki on 5-HT2A receptor is 400 nM; in experiment [1], 1000 nM; at rat 5-HT7a receptor it was greater than 10000 nM; on 5-HT2B receptor, 500 nM.

Take `CCC(C)c1nc2c(c(-c3ccc(OC(F)(F)F)cc3)n1)CNCC2` (stereo not shown) [Example 45, 2-sec-Butyl-4-(4-trifluoromethoxy-phenyl)-5,6,7,8-tetrahydro-pyrido[4,3-d]pyrimidine]: the Ki (on 5-HT2A receptor; in experiment [1]; at rat 5-HT7a receptor; on 5-HT2B receptor) was greater than 10000 nM throughout.

Regarding `Cc1nc2c(c(-c3ccc(Cl)cc3)n1)CCNCC2` [Example 51, 4-(4-Chloro-phenyl)-2-methyl-6,7,8,9-tetrahydro-5H-pyrimido[4,5-d]azepine], the inhibition constant (Ki) on 5-HT2A receptor was 470 nM; in experiment [1], 9000 nM; at rat 5-HT7a receptor it was greater than 10000 nM; at 5-HT2B receptor, 140 nM.

Take `Cc1nc2c(c(-c3ccccc3)n1)CCNCC2` [Example 52, 2-Methyl-4-phenyl-6,7,8,9-tetrahydro-5H-pyrimido[4,5-d]azepine]: the Ki at 5-HT2A receptor was 725 nM; in experiment [1] it was 9000 nM; on rat 5-HT7a receptor it was greater than 10000 nM; on 5-HT2B receptor, 1150 nM.

Consider `Cc1nc2c(c(-c3cccc(Cl)c3)n1)CCNCC2` [Example 53, 4-(3-Chloro-phenyl)-2-methyl-6,7,8,9-tetrahydro-5H-pyrimido[4,5-d]azepine], for which the inhibitory constant (Ki) on 5-HT2A receptor is 1000 nM; in experiment [1], greater than 10000 nM; at rat 5-HT7a receptor, greater than 10000 nM; at 5-HT2B receptor, greater than 10000 nM.

For the molecule `Cc1ccc(-c2nc(C(C)C)nc3c2CCCNC3)cc1` [Example 66, 2-Isopropyl-4-p-tolyl-6,7,8,9-tetrahydro-5H-pyrimido[4,5-c]azepine hydrochloride], the Ki at 5-HT2A receptor was 8 nM; in experiment [1] it was 145 nM; at rat 5-HT7a receptor, 300 nM; at 5-HT2B receptor, 30 nM.

For `COc1ccc(-c2nc(C(C)C)nc3c2CCCNC3)cc1` [Example 67, 2-Isopropyl-4-(4-methoxy-phenyl)-6,7,8,9-tetrahydro-5H-pyrimido[4,5-c]azepine], the inhibition constant Ki was 56 nM at 5-HT2A receptor, 495 nM in experiment [1], 5400 nM at rat 5-HT7a receptor and 80 nM at 5-HT2B receptor.

Take `CC(C)c1nc2c(c(-c3ccccc3)n1)CCCNC2` [Example 68, 2-Isopropyl-4-phenyl-6,7,8,9-tetrahydro-5H-pyrimido[4,5-c]azepine]: the Ki is 80 nM on 5-HT2A receptor, 7100 nM in experiment [1], greater than 10000 nM at rat 5-HT7a receptor and 660 nM at 5-HT2B receptor.

As to `c1ccc(Cc2nc3c(c(-c4ccccc4)n2)CCN(Cc2ccccc2)C3)cc1` [Example 72, 2,7-Dibenzyl-4-phenyl-5,6,7,8-tetrahydro-pyrido[3,4-d]pyrimidine], the inhibition constant (Ki) on 5-HT2A receptor was 130 nM; in experiment [1] it was greater than 10000 nM; on rat 5-HT7a receptor it was greater than 10000 nM; at 5-HT2B receptor, greater than 10000 nM.

The values are drawn from patent US7598255B2 (Janssen Pharmaceutica NV, priority 2005, dated 2009).
